Here are results for two molecules from patent publication US7727952B2, “Methods for treating spinal and bulbar muscular atrophy using LHRH analogs” (priority 2002, dated 2010).

The conditions of series [1]: The Leuproride Study Group 1984; cited from earlier work.
A short description of series [2]: Serum testosterone radioimmunoassay in Leuprorelin-administered male AR-97Q mice. Format: in vivo, mouse. Particulars: #4-6, n=4. How it is done: Leuprorelin was administrated as follows. 100 μg of Leuprorelin acetate was suspended in a solution containing D-mannitol, which was subcutaneously injected to the mice every two weeks from five weeks of age until the end of the analysis. To the control group, only suspension was administrated. […] That is to say, motor impairment assessed by rotarod and cage activity was far milder in the Leuprorelin-administrated male AR-97Q mice as compared with the control group, and motor dysfunction was hardly shown in the Leuprorelin-administrated group (FIGS. 5A, B, C and D).

In a further series the test system is male AR-97Q mice. Put plainly: Administration of Leuprorelin to male AR-97Q mice: symptoms (body weight, rotarod task, cage activity, survival rate, body size, foot prints). It counts as in vivo, mouse. How it is done:
We analyzed rotarod task of mice by an Economex Rotarod (Colombus Instruments, USA) weekly during the light phase of the 12 h light/12 h dark cycle as described previously (Adachi et al., 2001). We performed three trials, and recorded the longest duration on the rod for every mouse. We stopped the timer when the mouse fell from the rod or after an arbitrary limit of 180 seconds. We measured cage activity while each mouse was in a transparent acrylic cage (16×30×14 cm). We used an AB system (Neuroscience, Japan) with an infrared ray sensor monitor to measure spontaneous motor activity. We automatically totaled and recorded all measurements for 24 hours per week at 10-min intervals. […] Leuprorelin was administrated as follows. 100 μg of Leuprorelin acetate was suspended in a solution containing D-mannitol, which was subcutaneously injected to the mice every two weeks from five weeks of age until the end of the analysis. To the control group, only suspension was administrated. […] That is to say, motor impairment assessed by rotarod and cage activity was far milder in the Leuprorelin-administrated male AR-97Q mice as compared with the control group, and motor dysfunction was hardly shown in the Leuprorelin-administrated group (FIGS. 5A, B, C and D).

The next series relates to female AR-97Q mice. Put plainly: Administration of testosterone to female AR-97Q mice: symptoms (body weight, rotarod task, cage activity, survival rate, body size, foot prints). It counts as in vivo, mouse. How it is done: We analyzed rotarod task of mice by an Economex Rotarod (Colombus Instruments, USA) weekly during the light phase of the 12 h light/12 h dark cycle as described previously (Adachi et al., 2001). We performed three trials, and recorded the longest duration on the rod for every mouse. We stopped the timer when the mouse fell from the rod or after an arbitrary limit of 180 seconds.
We measured cage activity while each mouse was in a transparent acrylic cage (16×30×14 cm). We used an AB system (Neuroscience, Japan) with an infrared ray sensor monitor to measure spontaneous motor activity. We automatically totaled and recorded all measurements for 24 hours per week at 10-min intervals.
Male AR-97Q mice and their normal littermates were castrated or sham-operated via the abdominal route under ketamine-xylazine anesthesia (50 mg/kg ketamine and 10 mg/kg xylazine, i.p.) at 4 weeks of age. […] The control mice were given the same amount of sesame oil.
On the technique in general: The rotarod test checks motor coordination on a turning rod.

Series [3] in a line: Serum testosterone radioimmunoassay in testosterone-administered female AR-97Q mice. It counts as in vivo, mouse. Particulars: testosterone-administered female 97Q mice, control mice undetectable low level.

Structures are written as SMILES. Entries after “also recorded” stand apart in the source; their conditions may differ.

For the molecule `CCNC(=O)[C@@H]1CCCN1C(=O)[C@H](CCCNC(=N)N)NC(=O)[C@H](CC(C)C)NC(=O)[C@@H](CC(C)C)NC(=O)[C@H](Cc1ccc(O)cc1)NC(=O)[C@H](CO)NC(=O)[C@H](Cc1c[nH]c2ccccc12)NC(=O)[C@H](Cc1c[nH]cn1)NC(=O)[C@@H]1CCC(=O)N1` [Leuprorelin], the “effect of inhibiting the secretion of testosterone, relative to castration” value in series [1] is on record as “same level”. For the same molecule, the serum testosterone value result in series [2] is reported as “undetectable low level”. Besides, in the series on male AR-97Q mice (FIG. 5B, #7-8, Leuprorelin-administered group vs control (vehicle) group, n=6), the rotarod task result is “significant difference”. In addition, the cage activity result in the series with male AR-97Q mice (FIG. 5C, #7-8, Leuprorelin-administered group vs control (vehicle) group, n=6) is reported as “significant difference”. Besides, in the series with male AR-97Q mice (FIG. 5E, #4-6, 12-week-old, control group showed severe muscular atrophy), the body size entry was “normal”. The symptoms entry in the series with male AR-97Q mice (male AR-97Q mice, 100 μg Leuprorelin acetate s.c. every two weeks from five weeks of age, vs control group (suspension only)) is reported as “remarkable improvement”. The motor dysfunction entry with male AR-97Q mice (male AR-97Q mice, 100 μg s.c. every two weeks) is listed as “hardly shown”. In the series on male AR-97Q mice (male AR-97Q mice, 100 μg s.c. every two weeks, compared with the control group), the “motor impairment assessed by rotarod and cage activity” value was “far milder”. The “reduction in body size” value in the series with male AR-97Q mice (male AR-97Q mice, FIG. 5E, #4-6, 12-week-old) is on record as “remarkably improved”. For the same molecule, in the series on male AR-97Q mice (male AR-97Q mice, FIG. 5F, #4-6, 12-week-old), the “motor weakness (foot prints)” value is “improved”.
In the case of `CCCCCCC(=O)O[C@H]1CC[C@H]2[C@@H]3CCC4=CC(=O)CC[C@]4(C)[C@H]3CC[C@]12C` [testosterone, testosterone enanthate], in the series with female AR-97Q mice (FIG. 6A, #7-8, testosterone-administered group vs testosterone-administered normal mice or control (oil) group, p<0.0001), the body weight result was “significant difference”. The rotarod task result with female AR-97Q mice (FIG. 6B, #7-8, testosterone-administered group vs testosterone-administered normal mice or control (oil) group, p<0.0001) was “significant difference”. Further, the cage activity entry in the series with female AR-97Q mice (FIG. 6C, #2-6, testosterone-administered group vs testosterone-administered normal mice or control (oil) group, p<0.0001) was “significant difference”. For the same molecule, the survival rate entry with female AR-97Q mice (FIG. 6D, #7-8, testosterone-administered group vs testosterone-administered normal mice or control (oil) group, p<0.0001) is on record as “significant difference”. Further, the “symptoms, pathologic findings and nuclear localization of the mutant protein” value in the series on female AR-97Q mice (female AR-97Q mice, 20 μg testosterone enanthate s.c. weekly from 4 weeks of age, vs sesame-oil control group) was “drastically exacerbated”. In the series with female AR-97Q mice (female AR-97Q mice, FIG. 6A, control group hardly showed weight loss), the weight loss entry is reported as “significant weight loss”. For the same molecule, the life-span result in the series with female AR-97Q mice (female AR-97Q mice, FIG. 6D) is “affected”. The “muscle atrophy and body size” value with female AR-97Q mice (female AR-97Q mice, FIG. 6E, #2-6, 14-week-old) was “marked muscle atrophy and reduction in body size; also recorded: severe muscular atrophy”. Moreover, the foot print analysis entry with female AR-97Q mice (female AR-97Q mice, FIG. 6F, not detected in sesame oil-administered mice) is “exhibited motor weakness and dragged their hind legs”. Moreover, the “motor impairment assessed by rotarod and cage activity” value with female AR-97Q mice (female AR-97Q mice, compared with control mice, FIGS. 6B and C) is “significantly worsened”. Further, the serum testosterone levels turned out to be 158.0 ± 70.7 ng/dL in series [3] (line #2-6, n=3) and 305.3 ± 182.3 ng/dL in series [3] (line #7-8, n=4).
